“Also recorded” adds a separate entry of the source. Each block holds one compound with its values, some of them ahead of it. Ends that are not written are not given here. Me2 = dimethylated (lysine)
Assays:
[1] = test system: H1.0K180me2 appearance in SR hADSCs; experiment: Western blot of H1.0K180me2 in hADSCs treated with bleomycin after rapamycin or everolimus pretreatment; assay type: cell-based, human; settings: 500 nM pretreatment for 24 hours, then bleomycin 2 hours
Source text: (§1) Material for western blot analysis (cultured cells or tissue) was lysed in ice-cold RIPA lysis buffer (Thermo Scientific 89900) and sonicated using a Covaris S2 sonicator (10% duty cycle, Intensity 5, Bursts per minute 100, 120 seconds). Total protein concentration in each sample was quantified using Quick Start Bradford 1× Dye Reagent (BioRad, 5000205) following manufacturer's protocol. Samples were then mixed with NuPAGE LDS sample loading buffer (ThermoFisher, NP0007) and NuPAGE sample reducing buffer (ThermoFisher, NP0004), and heat denatured at 70° C. for 10 minutes. Proteins were separated on 4-12% precast polyacrylamide gels (ThermoFisher, NP0321) by electrophoresis and transferred to 0.45 μm nitrocellulose membrane. […] Proteins were detected with HRP secondary antibodies listed above for 1 hour at RT followed by ECL Western Blotting Substrate (ThermoFisher, 32106) using manufacturer's instructions. […]
To test if rapamycin derivatives can block H1.0K180me2 appearance upon DNA damage, SR hADSCs were treated with bleomycin for 2 hours with or without pretreatment with rapamycin or everolimus (a derivative of rapamycin) for 24 hours. Cells were then lysed and analyzed be western blot for H1.0K180me2, γH2A.X and β-Actin, according to methods described in Example 1.

GLP methyltransferase = molecular target: T1, GLP methyltransferase (Homo sapiens, UniProt Q9H9B1); experiment: In vitro methylation of K180 dimethylated H1.0 peptide with GLP, products by LC-MS; assay type: biochemical; settings: K180 dimethylated H1.0 peptide as substrate, only H1.0K180 and H1.0K174 further methylated
T1 construct: purchased Cayman Chemical 10755
T1 sequence (Q9H9B1 1-1298): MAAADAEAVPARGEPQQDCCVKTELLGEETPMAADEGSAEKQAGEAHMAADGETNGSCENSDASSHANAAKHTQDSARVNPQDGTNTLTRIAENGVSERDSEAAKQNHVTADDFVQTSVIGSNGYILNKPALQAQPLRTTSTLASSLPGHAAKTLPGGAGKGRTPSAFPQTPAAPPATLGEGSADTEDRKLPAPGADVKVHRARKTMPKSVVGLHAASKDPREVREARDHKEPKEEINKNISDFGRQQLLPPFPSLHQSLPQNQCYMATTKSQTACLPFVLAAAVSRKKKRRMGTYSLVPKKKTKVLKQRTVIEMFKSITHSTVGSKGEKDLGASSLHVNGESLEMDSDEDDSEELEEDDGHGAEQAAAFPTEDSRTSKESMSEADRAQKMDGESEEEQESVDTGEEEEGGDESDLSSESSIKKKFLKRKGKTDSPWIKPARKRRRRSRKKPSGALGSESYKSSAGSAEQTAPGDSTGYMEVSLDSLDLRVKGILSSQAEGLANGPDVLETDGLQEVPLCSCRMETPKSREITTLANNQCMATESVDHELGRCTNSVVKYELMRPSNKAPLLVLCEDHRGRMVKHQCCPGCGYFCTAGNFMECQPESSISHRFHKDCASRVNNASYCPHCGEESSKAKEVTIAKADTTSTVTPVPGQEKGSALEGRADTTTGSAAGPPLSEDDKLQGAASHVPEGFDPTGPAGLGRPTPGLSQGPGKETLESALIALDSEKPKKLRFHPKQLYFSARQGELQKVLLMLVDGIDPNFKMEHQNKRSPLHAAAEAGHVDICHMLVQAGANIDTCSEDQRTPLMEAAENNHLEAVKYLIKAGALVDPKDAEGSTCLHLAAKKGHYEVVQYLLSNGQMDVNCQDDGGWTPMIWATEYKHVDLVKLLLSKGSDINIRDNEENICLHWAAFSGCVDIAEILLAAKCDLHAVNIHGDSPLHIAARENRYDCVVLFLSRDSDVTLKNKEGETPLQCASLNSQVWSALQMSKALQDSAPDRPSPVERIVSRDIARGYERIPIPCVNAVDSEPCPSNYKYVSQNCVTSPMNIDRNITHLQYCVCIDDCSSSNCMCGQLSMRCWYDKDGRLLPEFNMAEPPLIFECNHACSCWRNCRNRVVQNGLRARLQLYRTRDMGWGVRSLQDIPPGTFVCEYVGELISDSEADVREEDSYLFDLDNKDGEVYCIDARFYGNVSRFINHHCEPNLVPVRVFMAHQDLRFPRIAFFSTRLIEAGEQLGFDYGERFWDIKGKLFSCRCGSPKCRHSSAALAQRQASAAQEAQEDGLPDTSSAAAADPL
Procedure: In order to identify the precise sites of methylation by G9A and GLP methyltransferases on histone H1.0, in vitro methylation assays were performed and subsequently analyzed by Liquid Chromatography and High-resolution Mass Spectrometry (LC-MS) analysis. Methylation reactions were set up using either G9A methyltransferase (NEB, M0235S, Lot #0031201) or GLP methyltransferase (Cayman Chemical, 10755). The methyl donor in each reaction was unlabeled S-Adenosyl-L-Methionine (NEB, B9003S). […]
(§2) For the Liquid Chromatography and High-resolution Mass Spectrometry (LC-MS) analysis, samples were prepared as described above and about 1 μg o the product was injected onto a Thermo Scientific Easy nLC system configured with a 10 cm×100 um trap column and a 25 cm×100 um ID resolving column. […] This ensured optimal full-scan data for quantification. […]
Protein identification was performed using Thermo Scientific Proteome Discoverer version 1.4 (including Sequest and Percolator algorithms) using RefSeqHuman sequence database. […] Protein quantification was performed using Pinpoint version 1.4 software. The Pinpoint quantification workflow included importing the Proteome Discoverer .msf files as spectral libraries. Identified peptides were subsequently quantified in MS .raw files using the Pinpoint peak finding, chromatographic alignment and area calculation algorithms. […]

G9A methyltransferase = experiment: In vitro methylation of K180me2 H1.0 peptide with G9A, products by LC-MS; assay type: biochemical
G9A methyltransferase, sequence (Q9Z148 969-1263 limits assumed): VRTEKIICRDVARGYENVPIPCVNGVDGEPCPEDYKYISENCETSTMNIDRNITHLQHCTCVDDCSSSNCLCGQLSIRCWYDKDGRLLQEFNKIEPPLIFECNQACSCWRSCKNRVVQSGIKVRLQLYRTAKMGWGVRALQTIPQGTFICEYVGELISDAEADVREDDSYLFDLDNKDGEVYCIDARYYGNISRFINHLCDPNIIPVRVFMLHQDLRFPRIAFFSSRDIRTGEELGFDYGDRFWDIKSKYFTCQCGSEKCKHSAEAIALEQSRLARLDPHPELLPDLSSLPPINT
Procedure: In order to identify the precise sites of methylation by G9A and GLP methyltransferases on histone H1.0, in vitro methylation assays were performed and subsequently analyzed by Liquid Chromatography and High-resolution Mass Spectrometry (LC-MS) analysis. Methylation reactions were set up using either G9A methyltransferase (NEB, M0235S, Lot #0031201) or GLP methyltransferase (Cayman Chemical, 10755). The methyl donor in each reaction was unlabeled S-Adenosyl-L-Methionine (NEB, B9003S). The H1.0 substrate in each reaction was either unmodified H1.0 peptide labeled with biotin (ThermoFisher Scientific, Biotin-[…] (SEQ ID NO:69)), di-methylated H1.0 peptide (ThermoFisher Scientific, Biotin-[…]^(me2)PK (SEQ ID NO:70)), or full-length recombinant human H1.0 (NEB, M2501S). Methylation reactions were set up in triplicate for each condition as follows: 1×HMT reaction buffer (50 mM Tris-HCl, 5 mM MgCl2, 4 mM dithiothreitol, pH 9.0); 10U G9A or GLP Methyltransferase; 3.2 mM S-Adenosyl-L-Methionine; 500 ng unmodified or modified H1.0 peptide, or 1 μg full-length protein; final volume 10 μl. As controls, reactions were set up as above but without any methyltransferase present. All reactions were incubated in a thermocycler at 37° C. for 1 hour, and subsequently stopped by incubating on ice for 5 minutes. Samples were frozen at −80° C. prior to LC-MS analysis.
as §2, with “column. Buffer A was 98% water, 2% methanol, and 0.2% formic acid.” for “column.”
Protein identification was performed using Thermo Scientific Proteome Discoverer version 1.4 (including Sequest and Percolator algorithms) using RefSeqHuman sequence database. […] Protein quantification was performed using Pinpoint version 1.4 software. The Pinpoint quantification workflow included importing the Proteome Discoverer .msf files as spectral libraries. Identified peptides were subsequently quantified in MS .raw files using the Pinpoint peak finding, chromatographic alignment and area calculation algorithms.
To further address the sensitivity and specificity of G9A methylation to lysine 180 of H1.0 peptide, the K180me2 peptide (H1.0 AA 165-182) was used as a substrate in similar in vitro methylation experiments. Only minor quantitates of further methylated peptide were detected: H1.0K166me1K180me2 (1.27% of the total peptide in the reaction), H1.0K174me1K180me3 (1.06% of the total peptide in the reaction) and H1.0K174me3K175me3K177me1K180me2 (0.35% of the total peptide in the reaction) as shown in FIG. 9B FIG. 10.

[2] = test system: chromatin bound H1.0 in hADSCs; experiment: LC-MS/MS of soluble and chromatin bound fractions of hADSCs after bleomycin; assay type: cell-based, human
Procedure: (§3) For replicative senescence, hADSCs were grown in culture until reaching replicative exhaustion (PD 41-46). For acute DNA damage conditions, SR hADSCs (PD 4-10) were treated with 50μg/ml bloemycin sulfate (Cayman Chemical, 13877) in growth media for 2 hours. For genotoxic stress induced senescence, SR hADSCs (PD 4-10) were treated with 50 μg/ml bloemycin sulfate (Cayman Chemical, 13877) in growth media for 2 hours then washed with PBS and given fresh growth media without bleomycin. Cells were then grown for 3 days before collection.
SR hADSCs, hADSCs treated with bleomycin for 2 hours (acute DNA damage) and hADSCs treated with bleomycin and allowed to senesce for 3 days (genotoxic stress induced senescence) were lysed and fractionated into soluble and chromatin bound fractions. These fractions were then subjected to LC-MS/MS analysis. Peptide expression levels were taken as the total area under the LC-MS/MS relative intensity curve, and individual peptides were unambiguously assigned to proteins using Pinpoint software, version 1.4 (Thermo Scientific). The areas of all peptides assigned to an individual protein were summed to yield protein expression levels, which were normalized against the total protein library size for each sample. For each cellular fraction, H1.0 peptide abundance is represented as a percentage of total H1.0 peptides observed in each condition. […]

H1.0K180me2 in hADSCs = experiment: Western blot / localization of H1.0K180me2 in hADSCs after bleomycin (acute DNA damage); assay type: cell-based, human
Procedure: as §3
as §1, with “minutes.” for “minutes. Proteins were separated on 4-12% precast polyacrylamide gels (ThermoFisher, NP0321) by electrophoresis and transferred to 0.45 μm nitrocellulose membrane.”

[3] = test system: secretion of H1.0K180me2 from hADSCs; experiment: Slot blot of culture media of hADSCs treated with bleomycin; assay type: cell-based, human
Procedure: 0.5 μl of serum sample or known amounts of synthesized peptide were diluted in 200 μl TBS. Samples were then heat denatured at 70° C. for 10 minutes before being transferred to nitrocellulose membrane using a vacuum manifold slot blot apparatus (BioRad, 1706542). The membrane was blocked with 5% non-fat milk in PBS-T for 30 minutes at RT then immunoblotted with the above primary antibodies at 4° C. over night. Proteins were detected with HRP secondary antibodies listed above for 1 hour at RT followed by ECL Western Blotting Substrate (ThermoFisher, 32106) using manufacturers instructions. All washes between steps were with PBS-T. Membranes were imaged with Omega LUM-C imaging system (Gel Company). Slot blot bands for each sample were then quantified using ImageJ.
SR hADSCs, hADSCs treated with bleomycin for 2 hours (acute DNA damage) and hADSCs treated with bleomycin and allowed to senesce for 3 days (genotoxic stress induced senescence) were lysed and fractionated into soluble and chromatin bound fractions. These fractions were then subjected to LC-MS/MS analysis. Peptide expression levels were taken as the total area under the LC-MS/MS relative intensity curve, and individual peptides were unambiguously assigned to proteins using Pinpoint software, version 1.4 (Thermo Scientific). The areas of all peptides assigned to an individual protein were summed to yield protein expression levels, which were normalized against the total protein library size for each sample. For each cellular fraction, H1.0 peptide abundance is represented as a percentage of total H1.0 peptides observed in each condition. Normalized absolute values of H1.0 peptide levels in each fraction were also shown. […] Culture media from SR hADSCs treated with bleomycin was collected for slot blot analysis with α-H1.0 and α-H1.0K180me2 antibodies to assess secretion of H1.0 to the extracellular matrix (ECM). The experiment was carried out according to methods described in Example 1. […] This signifies secretion out of the cells.

[4] = K180me2 peptide (H1.0 AA 165-182) as substrate

Compound: CO[C@H]1C[C@@H]2CC[C@@H](C)[C@@](O)(O2)C(=O)C(=O)N2CCCC[C@H]2C(=O)O[C@H]([C@H](C)C[C@@H]2CC[C@@H](OCCO)[C@H](OC)C2)CC(=O)[C@H](C)/C=C(\C)[C@@H](O)[C@@H](OC)C(=O)[C@H](C)C[C@H](C)/C=C/C=C/C=C/1C [everolimus]
appearance of H1.0K180me2 upon bleomycin treatment [1]: blocks H1.0K180me2 deposition on chromatin; also recorded: blocks H1.0K180me2 appearance

peptides further methylated (GLP methyltransferase): 1.02%
H1.0K166me1K180me2, % of the total peptide in the reaction (G9A methyltransferase; [4]): 1.27%
H1.0K174me1K180me3, % of the total peptide in the reaction (G9A methyltransferase; [4]): 1.06%
H1.0K174me3K175me3K177me1K180me2, % of the total peptide in the reaction (G9A methyltransferase; [4]): 0.35%
peptides further methylated (G9A methyltransferase; dimethylated H1.0 peptide as substrate): 2.64%
Compound: AKPVKASKPKKAKPVK(me2)PK (chain 1 AKPVKASKPKKAKPVK(Me2)PK; chain 2 AKPVKASKPKKAKPVK(Me2)PK; not fully specified (N-terminus)) [K180 dimethylated H1.0 peptide, H1.0 AA 165-182 peptide dimethylated at K180]

Compound: bleomycin
chromatin bound H1.0, % of total ([2]; acute DNA damage (bleomycin 2 hours)): ~60%
chromatin bound H1.0, % of total ([2]; genotoxic stress induced senescence (bleomycin 2 hours, then 3 days)): ~30%
localization of H1.0K180me2 (H1.0K180me2 in hADSCs; SR hADSCs treated with bleomycin): H1.0K180me2 localized to the cytoplasm
H1.0K180me2 on chromatin (H1.0K180me2 in hADSCs; bleomycin 50 μg/ml 2 hours, chromatin bound fraction, western blot): methylation of H1.0K180 on the chromatin upon DNA damage; also recorded: H1.0K180me2 is found on chromatin
secreted H1.0K180me2 in cell culture media ([3]; after 24 hours of bleomycin treatment): secreted H1.0K180me2 was also readily detected
time of maximal H1.0K180me2 secretion ([3]; conditioned medium, time course after bleomycin): ≤ 48 h
DFFB secretion ([3]; upon GSI-SEN, starting 48 hours after treatment): increase in DFFB secretion

— patent US10921324B2, “Compositions and methods related to the methylation of histone H1.0 protein” (Aelan Cell Technologies, Inc., priority 2016, dated 2021)
